Data taken from US20240165282A1, “CONFORMATIONAL CONSTRAINED SOMATOSTATIN RECEPTOR 3 PEPTIDE LIGANDS AND THEIR CONJUGATES AND USES THEREOF” (STARGET PHARMA LTD., priority 2021, published 2024).
*1 amine or outer side, *2 acyl side, *3 side chain or, on linkers, in order; H or OH if unused. Where a SMILES comes first, the peptide text is derived from it. Bridges are numbered along the chain shown (N, C = ends). [ ]: non-standard residue; d: D form. The star is where a group is joined. DOTA = O=C(O)CN1CCN(CC(=O)O)CCN(CC(=O)*)CCN(CC(=O)O)CC1; N(2-mercaptoethyl)Gly = O=C(CN(CCS[*:3])[*:1])[*:2]

Legend:
COX1(h) = target: T1, COX1(h) (Homo sapiens, UniProt P23219); test: Cerep off-target enzyme inhibition; type: biochemical; conditions: 1 micromolar; Enzymatic; read-out: % Activity: Inhibition of Control Specific Binding
T1 construct: Eurofins Cerep (contract assay)
Procedure: (§1) In this example, off-target interactions for SEQ ID NO.
(§2) The assays were performed by Eurofins Cerep (Celle 1'Evescault, France). Compound binding was calculated as a % inhibition of the binding of a radioactively labeled ligand specific for each target. Compound enzyme inhibition effect was calculated as a % inhibition of control enzyme activity. In each experiment and if applicable, the respective reference compound was tested concurrently with SEQ ID NO. 3, and the data were compared with historical values determined at Eurofins. The experiment was accepted in accordance with Eurofins validation Standard Operating Procedure. Results showing an inhibition (or stimulation for assays run in basal conditions) higher than 50% are considered to represent significant effects of the test compounds.

PDE3A (h) = target: T2, PDE3A (h) (Homo sapiens, UniProt Q14432); test: Cerep off-target enzyme inhibition; type: biochemical; conditions: 1 micromolar; Enzymatic; read-out: % Activity: Inhibition of Control Specific Binding
T2 construct: Eurofins Cerep (contract assay)
Procedure: as §1, §2

PDE4D2 (h) = target: T3, PDE4D2 (h) (Homo sapiens, UniProt Q08499); test: Cerep off-target enzyme inhibition; type: biochemical; conditions: 1 micromolar; Enzymatic; read-out: % Activity: Inhibition of Control Specific Binding
T3 construct: Eurofins Cerep (contract assay)
Procedure: as §1, §2

Lck kinase (h) = target: T4, Lck kinase (h) (Homo sapiens, UniProt P06239); test: Cerep off-target enzyme inhibition; type: biochemical; conditions: 1 micromolar; Enzymatic; read-out: % Activity: Inhibition of Control Specific Binding
T4 construct: Eurofins Cerep (contract assay)
Procedure: as §1, §2

COX2(h) = target: T5, COX2(h) (Homo sapiens, UniProt P35354); test: Cerep off-target enzyme inhibition; type: biochemical; conditions: 1 micromolar; Enzymatic; read-out: % Activity: Inhibition of Control Specific Binding
T5 construct: Eurofins Cerep (contract assay)
Procedure: as §1, §2

acetylcholinesterase (h) = target: T6, acetylcholinesterase (h) (Homo sapiens, UniProt P22303); test: Cerep off-target enzyme inhibition; type: biochemical; conditions: 1 micromolar; Enzymatic; read-out: % Activity: Inhibition of Control Specific Binding
T6 construct: Eurofins Cerep (contract assay)
Procedure: as §1, §2

SSTR1 = SSTR1 (Homo sapiens, UniProt P30872); test: Radioligand binding, displacement of 125I-Tyr11-SRIF-14; design: host or cells: CHO (Chinese Hamster Ovary) cells, membrane preparation
Outline: (§3)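 Assays ran at 25 °C in 25 mM HEPES pH 7.4 with 5 mM MgCl2, 1 mM CaCl2, 0.1% BSA and 1% DMSO. Filter-bound radioactivity gave IC50 by nonlinear least-squares regression.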

SSTR3 = SSTR3 (Homo sapiens, UniProt P32745); test: as above; design: host or cells: CHO (Chinese Hamster Ovary) cells, membrane preparation
Outline: as §3

SSTR2 = SSTR2 (Homo sapiens, UniProt P30874); test: as above; design: host or cells: CHO (Chinese Hamster Ovary) cells, membrane preparation
Outline: as §3

[1] = tested on: Ca2+ channel (L, dihydropyridine site); test: Cerep off-target radioligand binding; design: species or system human; conditions: 1 micromolar; antagonist radioligand
Procedure: as §1, §2

AR(h) = test: Cerep off-target radioligand binding; design: species or system human; conditions: 1 micromolar; agonist radioligand
Procedure: as §1, §2

NMDA = test: Cerep off-target radioligand binding; design: species or system human; conditions: 1 micromolar; antagonist radioligand
Procedure: as §1, §2

MAO-A = target: T7, MAO-A (Rattus norvegicus, UniProt P21396); test: Cerep off-target radioligand binding; design: species or system human; conditions: 1 micromolar; antagonist radioligand; read-out: % Activity: Inhibition of Control Specific Binding
T7 construct: Eurofins Cerep (assay service)
Procedure: as §1, §2

KV channel = test: Cerep off-target radioligand binding; design: species or system human; conditions: 1 micromolar; antagonist radioligand
Procedure: as §1, §2

BZD (central) = test: Cerep off-target radioligand binding; design: species or system human; conditions: 1 micromolar; agonist radioligand
Procedure: as §1, §2

Na+ channel (site 2) = test: Cerep off-target radioligand binding; design: species or system human; conditions: 1 micromolar; antagonist radioligand
Procedure: as §1, §2

[2] = tested on: 44 human cloned GPCRs and GPCR mediated cellular enzymatic activities; test: Eurofins Cerep off-target safety pharmacology panel; type: binding; conditions: 1 micromolar
Procedure: as §1, §2
Results showing an inhibition (or stimulation) between 25% and 50% are indicative of weak to moderate effects (in most assays, they should be confirmed by further testing as they are within a range where more inter-experimental variability can occur). […]
Low to moderate negative values have no real meaning and are attributable to variability of the signal around the control level. […] The results are expressed as a percent of control specific binding measured specific binding

M1 (h) = M1 (h) (Homo sapiens, UniProt P11229); test: Cerep off-target radioligand binding; conditions: 1 micromolar; antagonist radioligand; read-out: % Activity: Inhibition of Control Specific Binding
Procedure: as §1, §2

5-HT transporter (h) = target: T8, 5-HT transporter (h) (Homo sapiens, UniProt P31645); test: Cerep off-target radioligand binding; conditions: 1 micromolar; antagonist radioligand; read-out: % Activity: Inhibition of Control Specific Binding
T8 construct: Eurofins Cerep (contract assay)
Procedure: as §1, §2

[3] = target: T9, norepinephrine transporter (h) (Homo sapiens, UniProt P23975); test: Cerep off-target radioligand binding; conditions: 1 micromolar; antagonist radioligand; read-out: % Activity: Inhibition of Control Specific Binding
T9 construct: Eurofins Cerep (contract assay)
Procedure: as §1, §2

H1 (h) = H1 (h) (Homo sapiens, UniProt P35367); test: Cerep off-target radioligand binding; conditions: 1 micromolar; antagonist radioligand; read-out: % Activity: Inhibition of Control Specific Binding
Procedure: as §1, §2

Sequence of SSTR3 (P32745 whole entry): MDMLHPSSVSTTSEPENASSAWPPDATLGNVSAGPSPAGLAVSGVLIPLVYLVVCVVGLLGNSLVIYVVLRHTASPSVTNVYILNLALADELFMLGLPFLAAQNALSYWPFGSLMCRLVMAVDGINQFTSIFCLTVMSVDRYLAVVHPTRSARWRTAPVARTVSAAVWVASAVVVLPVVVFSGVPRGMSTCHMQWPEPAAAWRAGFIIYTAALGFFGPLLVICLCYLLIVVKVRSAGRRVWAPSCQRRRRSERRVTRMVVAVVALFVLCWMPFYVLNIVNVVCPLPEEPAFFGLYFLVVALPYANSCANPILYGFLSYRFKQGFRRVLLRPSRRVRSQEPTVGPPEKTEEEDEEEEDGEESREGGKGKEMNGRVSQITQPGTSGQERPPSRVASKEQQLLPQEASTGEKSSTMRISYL
Sequence of SSTR2 (P30874 whole entry): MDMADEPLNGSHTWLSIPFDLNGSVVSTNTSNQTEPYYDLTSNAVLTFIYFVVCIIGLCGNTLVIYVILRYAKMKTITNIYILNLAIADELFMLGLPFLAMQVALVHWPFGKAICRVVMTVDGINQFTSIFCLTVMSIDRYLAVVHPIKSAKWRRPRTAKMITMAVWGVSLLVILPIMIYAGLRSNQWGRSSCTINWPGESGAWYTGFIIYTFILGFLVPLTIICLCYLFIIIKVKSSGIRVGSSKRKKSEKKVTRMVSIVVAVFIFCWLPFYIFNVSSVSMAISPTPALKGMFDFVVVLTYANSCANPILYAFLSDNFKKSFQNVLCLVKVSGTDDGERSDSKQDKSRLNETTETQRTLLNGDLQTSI
Sequence of SSTR1 (P30872 whole entry): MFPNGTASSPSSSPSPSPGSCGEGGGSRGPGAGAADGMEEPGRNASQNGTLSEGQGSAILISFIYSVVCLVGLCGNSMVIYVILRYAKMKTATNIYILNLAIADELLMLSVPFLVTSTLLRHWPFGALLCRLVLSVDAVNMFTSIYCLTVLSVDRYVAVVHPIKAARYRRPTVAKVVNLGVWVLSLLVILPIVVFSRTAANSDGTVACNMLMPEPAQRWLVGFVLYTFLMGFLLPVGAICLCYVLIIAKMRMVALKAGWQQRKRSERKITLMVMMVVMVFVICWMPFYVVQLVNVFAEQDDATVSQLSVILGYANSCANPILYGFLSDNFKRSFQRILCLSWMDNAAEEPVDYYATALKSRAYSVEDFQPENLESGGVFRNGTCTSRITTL
T8 sequence (P31645 whole entry): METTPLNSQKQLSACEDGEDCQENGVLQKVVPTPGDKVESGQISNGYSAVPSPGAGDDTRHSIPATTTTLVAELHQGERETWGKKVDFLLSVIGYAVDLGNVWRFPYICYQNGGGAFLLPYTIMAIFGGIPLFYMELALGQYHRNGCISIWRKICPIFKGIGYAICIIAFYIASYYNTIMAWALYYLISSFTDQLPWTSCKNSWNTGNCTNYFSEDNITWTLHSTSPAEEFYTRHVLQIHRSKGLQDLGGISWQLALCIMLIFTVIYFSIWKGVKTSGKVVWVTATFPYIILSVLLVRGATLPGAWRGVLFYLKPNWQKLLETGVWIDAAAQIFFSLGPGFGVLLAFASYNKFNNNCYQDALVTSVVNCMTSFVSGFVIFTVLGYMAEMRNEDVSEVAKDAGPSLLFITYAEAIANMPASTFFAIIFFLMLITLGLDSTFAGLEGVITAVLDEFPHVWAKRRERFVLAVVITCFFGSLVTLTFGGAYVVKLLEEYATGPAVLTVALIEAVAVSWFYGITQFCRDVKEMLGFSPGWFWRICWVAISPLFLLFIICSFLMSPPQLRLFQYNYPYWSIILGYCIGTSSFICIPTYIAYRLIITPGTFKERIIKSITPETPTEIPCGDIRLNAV
T3 sequence (Q08499 303-809): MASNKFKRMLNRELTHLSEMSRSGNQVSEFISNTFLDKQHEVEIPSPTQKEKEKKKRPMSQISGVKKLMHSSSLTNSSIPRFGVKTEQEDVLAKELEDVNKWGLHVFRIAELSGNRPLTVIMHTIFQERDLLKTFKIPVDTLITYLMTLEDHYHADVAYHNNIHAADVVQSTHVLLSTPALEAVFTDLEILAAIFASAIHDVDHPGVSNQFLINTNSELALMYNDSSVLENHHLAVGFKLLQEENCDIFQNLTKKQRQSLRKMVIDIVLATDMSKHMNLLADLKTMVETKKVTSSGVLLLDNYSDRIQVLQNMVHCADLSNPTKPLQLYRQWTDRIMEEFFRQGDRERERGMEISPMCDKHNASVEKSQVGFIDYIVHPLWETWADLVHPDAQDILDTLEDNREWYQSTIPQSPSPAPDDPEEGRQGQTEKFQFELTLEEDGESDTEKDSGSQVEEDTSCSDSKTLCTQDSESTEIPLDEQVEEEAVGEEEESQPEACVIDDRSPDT
T9 sequence (P23975 whole entry): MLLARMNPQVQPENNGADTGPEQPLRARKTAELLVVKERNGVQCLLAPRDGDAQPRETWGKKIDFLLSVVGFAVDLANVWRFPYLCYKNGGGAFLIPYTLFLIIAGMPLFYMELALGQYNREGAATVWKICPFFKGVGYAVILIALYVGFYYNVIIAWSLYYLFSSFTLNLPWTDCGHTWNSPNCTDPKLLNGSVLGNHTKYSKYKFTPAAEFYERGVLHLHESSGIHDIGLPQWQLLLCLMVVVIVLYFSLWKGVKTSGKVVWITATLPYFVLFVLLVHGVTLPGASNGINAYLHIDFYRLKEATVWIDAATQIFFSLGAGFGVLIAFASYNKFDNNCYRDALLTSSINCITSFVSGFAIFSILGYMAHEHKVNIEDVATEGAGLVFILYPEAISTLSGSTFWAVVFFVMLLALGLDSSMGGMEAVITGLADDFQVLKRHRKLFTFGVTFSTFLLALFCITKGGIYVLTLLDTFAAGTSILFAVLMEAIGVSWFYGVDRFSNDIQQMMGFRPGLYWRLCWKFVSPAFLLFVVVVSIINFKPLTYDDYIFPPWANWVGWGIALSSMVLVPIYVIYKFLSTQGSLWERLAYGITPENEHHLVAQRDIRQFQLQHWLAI
T5 sequence (P35354 18-604): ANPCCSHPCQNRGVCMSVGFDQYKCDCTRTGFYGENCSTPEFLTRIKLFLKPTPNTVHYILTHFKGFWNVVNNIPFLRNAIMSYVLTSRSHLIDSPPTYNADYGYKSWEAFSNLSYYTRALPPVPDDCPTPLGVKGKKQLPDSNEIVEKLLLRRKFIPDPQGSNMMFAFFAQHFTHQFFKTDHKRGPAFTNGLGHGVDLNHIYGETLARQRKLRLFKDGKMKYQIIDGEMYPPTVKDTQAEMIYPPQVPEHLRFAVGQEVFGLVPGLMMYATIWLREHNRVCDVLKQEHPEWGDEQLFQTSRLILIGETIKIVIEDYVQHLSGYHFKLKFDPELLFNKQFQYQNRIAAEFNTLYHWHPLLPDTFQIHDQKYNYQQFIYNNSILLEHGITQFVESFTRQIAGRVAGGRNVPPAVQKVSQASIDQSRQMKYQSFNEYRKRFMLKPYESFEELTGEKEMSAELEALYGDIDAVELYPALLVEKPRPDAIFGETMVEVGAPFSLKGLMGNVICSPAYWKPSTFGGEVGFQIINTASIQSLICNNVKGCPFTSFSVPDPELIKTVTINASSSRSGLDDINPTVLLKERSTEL
T2 sequence (Q14432 whole entry): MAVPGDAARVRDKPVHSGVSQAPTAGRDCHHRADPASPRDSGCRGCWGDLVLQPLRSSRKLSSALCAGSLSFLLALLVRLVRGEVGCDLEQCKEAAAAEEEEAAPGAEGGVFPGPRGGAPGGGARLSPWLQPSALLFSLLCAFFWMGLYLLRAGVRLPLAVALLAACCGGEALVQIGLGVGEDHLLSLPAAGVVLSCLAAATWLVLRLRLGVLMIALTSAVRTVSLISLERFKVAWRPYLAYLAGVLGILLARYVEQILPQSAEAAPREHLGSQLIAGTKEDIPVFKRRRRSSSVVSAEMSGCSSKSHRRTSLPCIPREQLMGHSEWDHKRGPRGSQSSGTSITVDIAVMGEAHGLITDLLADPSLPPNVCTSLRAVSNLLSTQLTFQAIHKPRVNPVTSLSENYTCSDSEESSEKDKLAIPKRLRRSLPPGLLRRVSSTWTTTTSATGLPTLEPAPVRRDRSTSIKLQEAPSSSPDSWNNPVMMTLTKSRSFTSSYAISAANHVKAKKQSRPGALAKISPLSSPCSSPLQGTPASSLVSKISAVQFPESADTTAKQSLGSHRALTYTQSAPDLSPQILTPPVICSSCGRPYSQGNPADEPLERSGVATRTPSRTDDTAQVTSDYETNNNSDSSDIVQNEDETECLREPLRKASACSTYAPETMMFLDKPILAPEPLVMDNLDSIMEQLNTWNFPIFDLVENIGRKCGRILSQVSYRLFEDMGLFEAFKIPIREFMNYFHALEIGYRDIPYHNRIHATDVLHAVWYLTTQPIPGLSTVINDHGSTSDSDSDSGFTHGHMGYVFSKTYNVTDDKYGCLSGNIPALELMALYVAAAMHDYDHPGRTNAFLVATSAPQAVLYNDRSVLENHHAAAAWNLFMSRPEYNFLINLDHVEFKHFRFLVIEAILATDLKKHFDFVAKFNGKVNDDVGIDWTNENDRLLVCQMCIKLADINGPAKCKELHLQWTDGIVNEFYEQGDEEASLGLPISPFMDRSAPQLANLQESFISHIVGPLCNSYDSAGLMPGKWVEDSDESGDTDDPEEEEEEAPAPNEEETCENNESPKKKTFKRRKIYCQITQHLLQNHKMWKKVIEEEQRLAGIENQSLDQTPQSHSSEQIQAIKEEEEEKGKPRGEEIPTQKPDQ

`C[C@@H](O)[C@@H]1NC(=O)[C@H](CCCCN)NC(=O)[C@@H](Cc2c[nH]c3ccccc23)NC(=O)[C@H](Cc2ccccc2)NC(=O)[C@@H](NC(=O)[C@H](CCCNC(=N)N)NC(=O)[C@@H](Cc2ccccc2)NC(=O)CN2CCN(CC(=O)O)CCN(CC(=O)O)CCN(CC(=O)O)CC2)CSSCCN(CC(N)=O)C(=O)[C@H](Cc2ccccc2)NC1=O` [SEQ ID NO: 3, DOTA-D-Phe^1-Arg^2-Cys^3-Phe^4-D-Trp^5-Lys^6-Thr^7-Phe^8-NTEG^9-NH2 cyclo 3-9] ({DOTA}-[dF]RCF[dW]KTF[N(2-mercaptoethyl)Gly]-NH2; disulfide 3-9) was tested, and the inhibition at 1 µM (COX1(h)) was 9%, the inhibition at 1 µM (PDE3A (h)) was 0% and the inhibition at 1 µM (PDE4D2 (h)) was -2%. The inhibition at 1 µM (Lck kinase (h)) was -4%, the inhibition at 1 µM (COX2(h)) was 18% and the inhibition at 1 µM (acetylcholinesterase (h)) was 6%. For the same molecule, the IC50 (SSTR1) was 310 nM, the Ki (SSTR1) was 260 nM and the “Hill coefficient (nH)” value (SSTR1; hSSTR-1) was 0.86. The IC50 (SSTR3) was 0.83 nM, the Ki (SSTR3) was 0.28 nM and the “affinity and selectivity to SSTR3 (in words)” value (SSTR3; binding data, listed as DOTA conjugate of SEQ ID NO: 1) was “did not interfere with the binding affinity and selectivity of SEQ ID NO: 1”. For the same molecule, the “Hill coefficient (nH)” value (SSTR3; hSSTR-3) was 1.15, the IC50 (SSTR2) was 590 nM and the Ki (SSTR2) was 310 nM. For the same molecule, the “Hill coefficient (nH)” value (SSTR2; hSSTR-2) was 1.62, the “% Activity: Inhibition of Control Specific Binding” value (shortened to “% Activity: Inhibition”) [1] was −10% and the “% Activity: Inhibition” value (AR(h)) was −9%. For the same molecule, the “% Activity: Inhibition” value (NMDA) was 10%, the inhibition at 1 µM (MAO-A) was 3% and the “% Activity: Inhibition” value (KV channel) was −5%. For the same molecule, the “% Activity: Inhibition” value (BZD (central)) was −7%, the “% Activity: Inhibition” value (Na+ channel (site 2)) was 3% and the “off-target interactions with opiate receptors” value [2] was “not indicated”. The “off-target interactions, safety pharmacology panel (in words)” value [2] was “no interaction with human cloned GPCRs of clinical significance”, the inhibition at 1 µM (M1 (h)) was -3% and the inhibition at 1 µM (5-HT transporter (h)) was -9%. The inhibition at 1 µM [3] was -10% and the inhibition at 1 µM (H1 (h)) was 7%.
